Values quoted from earlier work as cited in article PMC10814857, “Functional Classification and Interaction Selectivity Landscape of the Human SH3 Domain Superfamily” (Cells, 2024).
Like-named read-outs stand apart in the source and are kept apart here.

Key:
HCK SH3 domain = conditions: SPR, Table S4, ref [72]; cited from earlier work
FYN SH3 domain [1] = conditions: SPR, Table S4, ref [72]; cited from earlier work
CD2AP-1 (CMS) SH3 domain = conditions: SPR, Table S4, ref [50, 82]; cited from earlier work
Description: page 7: […] E CD2AP-1 CD2 […] PX(P/A)XXR PXXXPR 100 SPR [50, (CMS) G 82] SH3KBP1- 1 (CIN85) 1 The underlined residues in the second column represent motifs associated with the published consensus PRMs, while the residues highlighted in green represent the proposed consensus PRM identified in the current study. 2 CD: Circular Dichroism Spectroscopy FL: fluorescence-based titrations; HSQC: Heteronuclear Single Quantum Coherence; ITC: Isothermal titration calorimetry; MST: microscale thermophoresis 7

[2] = biological target: BAIAP2L1 (IRTKS) SH3 domain; conditions: ITC, Table S4, ref [76]; cited from earlier work
Protocol: page 6: […][…] […] PAK2 […] PXXXPR PXXXPR 1.05 ITC [34] TRSVI ITSN1-2 Synthetic […] Exceptional [W/F][R/W]xSx[A/ 53 ITC [29] peptide G][F/Y][L/V]xGP[ W/L] NCK1-2 N-WASP GP[…] … 147 HSQC [64] VA[…] 199 PLCG1 SOS1 AAPV[…] … 0.20mM SPR [75] AADS[…] 0.40mM AAES[…] 0.70mM AAIA[…] 0.28mM BAIAP2L1 EspFUR45 IPP[…] … 0.5 nM ITC [76] (IRTKS) 9 SORBS2- Synthetic […] Exceptional XRXGXAYLXYVX 38 ITC [29] 1 peptide Synthetic RL[…](L/P) ...

AMPH SH3 domain = conditions: g-radiation, Table S4, ref [80]; cited from earlier work
Protocol: (§1) page 6: […] […] […] PAK2 […] PXXXPR PXXXPR 1.05 ITC [34] TRSVI ITSN1-2 Synthetic […] Exceptional [W/F][R/W]xSx[A/ 53 ITC [29] peptide G][F/Y][L/V]xGP[ W/L] NCK1-2 N-WASP GP[…] … 147 HSQC [64] VA[…] 199 PLCG1 SOS1 AAPV[…] … 0.20mM SPR [75] AADS[…] 0.40mM AAES[…] 0.70mM AAIA[…] 0.28mM BAIAP2L1 EspFUR45 IPP[…] … 0.5 nM ITC [76] (IRTKS) 9 SORBS2- Synthetic […] Exceptional XRXGXAYLXYVX 38 ITC [29] 1 peptide Synthetic RL[…](L/P) ...

FYN SH3 domain [3] = biological target: FYN SH3 domain; set-up: method as in ref [20] (a number printed in a supplementary file, which may have a reference list of its own: not looked up in the article's list); conditions: NMR, Table S4, ref [20]; cited from earlier work
FYN SH3 domain [4] = biological target: FYN SH3 domain; set-up: method as in ref [20] (a number printed in a supplementary file, which may have a reference list of its own: not looked up in the article's list); conditions: CD, Table S4, ref [20]; cited from earlier work
FYN SH3 domain [5] = biological target: FYN SH3 domain; set-up: method as in ref [20] (a number printed in a supplementary file, which may have a reference list of its own: not looked up in the article's list); conditions: ITC, Table S4, ref [20]; cited from earlier work
CRK-1 SH3 domain = biological target: CRK-1 SH3 domain; set-up: method as in ref [70] (a number printed in a supplementary file, which may have a reference list of its own: not looked up in the article's list); conditions: CRK-1, ITC, Table S4; ref [70]; cited from earlier work
STAM2 SH3 domain = conditions: STAM2, FL, Table S4; ref [52]; cited from earlier work
Protocol: as §1

ITSN1-2 SH3 domain = conditions: ITSN1-2, ITC, Table S4; ref [29]; cited from earlier work
Protocol: as §1

SNX9 SH3 domain = conditions: cited from earlier work
SH3PXD2B-1/2 SH3 domains [6] = biological target: SH3PXD2B-1/2 SH3 domains; set-up: method as in ref [68] (a number printed in a supplementary file, which may have a reference list of its own: not looked up in the article's list); conditions: SH3PXD2B-1/2, MST, Table S4; ref [68]; cited from earlier work
SH3PXD2B-1/2 SH3 domains [7] = biological target: SH3PXD2B-1/2 SH3 domains; set-up: method as in ref [68] (a number printed in a supplementary file, which may have a reference list of its own: not looked up in the article's list); conditions: SH3PXD2B-1/2, FL, Table S4; ref [68]; cited from earlier work
p85A SH3 domain = biological target: p85A SH3 domain; set-up: method as in ref [62] (a number printed in a supplementary file, which may have a reference list of its own: not looked up in the article's list); conditions: FL, Table S4, ref [62]; cited from earlier work
SPTAN1 SH3 domain = biological target: SPTAN1 SH3 domain; set-up: method as in ref [63] (a number printed in a supplementary file, which may have a reference list of its own: not looked up in the article's list); conditions: SPTAN1, FL, Table S4; ref [63]; cited from earlier work
LCK SH3 domain = conditions: FL, Table S4, ref [74]; cited from earlier work
PACSIN1 SH3 domain = biological target: PACSIN1 SH3 domain; set-up: method as in ref [61] (a number printed in a supplementary file, which may have a reference list of its own: not looked up in the article's list); conditions: PACSIN1, HSQC, Table S4; ref [61]; cited from earlier work
PACSIN2 SH3 domain = biological target: PACSIN2 SH3 domain; set-up: method as in ref [61] (a number printed in a supplementary file, which may have a reference list of its own: not looked up in the article's list); conditions: PACSIN2, HSQC, Table S4; ref [61]; cited from earlier work
PACSIN3 SH3 domain = biological target: PACSIN3 SH3 domain; set-up: method as in ref [61] (a number printed in a supplementary file, which may have a reference list of its own: not looked up in the article's list); conditions: PACSIN3, HSQC, Table S4; ref [61]; cited from earlier work

PVRPQVPLRPMT [published Nef peptide]
Kd (HCK SH3 domain): 91 µM | Kd (FYN SH3 domain [1]): 202 µM

QKGPPLPRPRVQPKPPHG [published CD2 peptide]
Kd (CD2AP-1 (CMS) SH3 domain): 100 µM

IPPAPNWPAPTPP [published peptide EspFUR45]
Kd [2]: 0.0005 µM

PSRPNR [published Dynamin-I peptide]
Kd (AMPH SH3 domain): 0.19 µM

PPRPLPVAPGSSKT [published peptide P2L]
Kd (FYN SH3 domain [3]): 50 µM | Kd (FYN SH3 domain [4]): 28 µM | Kd (FYN SH3 domain [5]): 16 µM

DNSPPPALPPKKRQSAPS [published C3G peptide]
Kd (CRK-1 SH3 domain): ~2 µM

TPMVNRENKPP [published UBPY peptide]
Kd (STAM2 SH3 domain): 27 µM

WRDSSGYVMGPW [published synthetic peptide (ITSN1-2 ligand)]
Kd (ITSN1-2 SH3 domain): 53 µM

AERLIPRRPAPPVPVPARIPSPR
Kd (SNX9 SH3 domain): 0.3 µM

GSHMGDAKQRSPKMRQRPPPRRDMTIPRGLNLPKPPIPPQVE [published SH3PXD2B peptide]
Kd (SH3PXD2B-1/2 SH3 domains [6]): 15 µM | Kd (SH3PXD2B-1/2 SH3 domains [7]): 11 µM

RKLPPRPSK [published synthetic peptide (p85A ligand)]
Kd (p85A SH3 domain): 9.1 µM

ASYPPVPPP [published Peptide41 (SPTAN1 ligand)]
Kd (SPTAN1 SH3 domain): 160 µM

ATLDPGMPTPPLPPRPANLG [published Tip peptide]
Kd (LCK SH3 domain): 16.8 µM

TKGPAPNPPPVLKV [published TRPV4 peptide]
Kd (PACSIN1 SH3 domain): 51.6 µM | Kd (PACSIN2 SH3 domain): 12.7 µM | Kd (PACSIN3 SH3 domain): 68.6 µM
